Literature values in US10149828B2, “Oxybutynin transdermal therapeutic system combination” (priority 2015, dated 2018).

Legend:
[1] = administered orally to mice
[2] = [14C] oxybutynin, transdermal, rats
[3] = compared to placebo over six months; pivotal clinical trials
[4] = open-label, titrated to 6 mg twice daily, 26 weeks

CCN(CC)CC#CCOC(=O)C(O)(c1ccccc1)C1CCCCC1 (stereo not drawn) [oxybutynin, 4-diethylaminobut-2-ynyl 2-cyclohexyl-2-hydroxy-2-phenylethanoate]
crossing of the Blood-Brain-Barrier [1]: has been shown to cross the Blood-Brain-Barrier
radiolabel in the brain [2]: presence of radiolabel in the brain

CCN(C)C(=O)Oc1cccc([C@H](C)N(C)C)c1 [rivastigmine, (S)-N-Ethyl-N-methyl-3-[1-(dimethylamino)ethyl]-phenyl carbamate]
improvement on the 30-point Mini-Mental Status Examination (MMSE) [3]: 1-1.5 point
improvement on the 70-point cognitive subscale of the Alzheimer's Disease Assessment Scale (ADAS-Cog) [3]: ~2.8 point
cognitive functions in PD patients with dementia [4]: may improve
motor function in PD patients with dementia [4]: no worsening
